Assay results: patent publication US11612604B2, “Methods of treating cancer with PLK4 inhibitors” (LUDWIG INSTITUTE FOR CANCER RESEARCH LTD, priority 2017, dated 2023)

Biological target: T1, PLK4 (Homo sapiens, UniProt O00444)
T1 sequence (O00444 1-970): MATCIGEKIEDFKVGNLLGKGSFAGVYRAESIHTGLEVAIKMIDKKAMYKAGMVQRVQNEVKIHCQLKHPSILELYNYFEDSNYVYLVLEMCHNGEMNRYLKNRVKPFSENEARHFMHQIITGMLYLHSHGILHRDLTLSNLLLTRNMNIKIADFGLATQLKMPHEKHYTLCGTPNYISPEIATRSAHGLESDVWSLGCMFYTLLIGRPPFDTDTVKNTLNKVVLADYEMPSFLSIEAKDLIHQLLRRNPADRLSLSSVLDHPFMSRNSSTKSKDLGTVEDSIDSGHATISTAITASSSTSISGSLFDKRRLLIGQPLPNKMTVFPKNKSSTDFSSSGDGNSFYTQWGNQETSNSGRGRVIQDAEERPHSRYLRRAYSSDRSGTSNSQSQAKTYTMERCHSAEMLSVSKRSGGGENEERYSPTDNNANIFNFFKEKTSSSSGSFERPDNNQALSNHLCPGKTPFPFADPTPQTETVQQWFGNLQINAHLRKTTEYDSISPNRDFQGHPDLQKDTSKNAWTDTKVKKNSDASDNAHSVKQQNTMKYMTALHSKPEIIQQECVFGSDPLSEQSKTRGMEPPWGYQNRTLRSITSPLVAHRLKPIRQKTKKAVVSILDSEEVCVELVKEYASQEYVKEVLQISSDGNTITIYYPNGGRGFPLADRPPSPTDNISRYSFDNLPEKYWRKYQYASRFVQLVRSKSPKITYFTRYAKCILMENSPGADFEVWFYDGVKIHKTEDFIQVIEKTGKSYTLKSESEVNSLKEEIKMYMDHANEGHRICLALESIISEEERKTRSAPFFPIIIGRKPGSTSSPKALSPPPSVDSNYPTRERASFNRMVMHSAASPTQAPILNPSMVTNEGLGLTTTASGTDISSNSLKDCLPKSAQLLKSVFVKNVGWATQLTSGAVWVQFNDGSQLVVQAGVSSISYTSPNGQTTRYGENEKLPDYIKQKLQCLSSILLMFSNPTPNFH
Experiment: Activity (IC50) of the Table 1 compounds as PLK4 inhibitors
Format: biochemical
Conditions: Table 1, IC50 class

IC50 | SMILES
< 100 nM | COc1c(Nc2cc(C)[nH]n2)nc(Sc2ccc(NC(=O)C3CC3)cc2)nc1N1CCN(C)CC1
< 100 nM | Cc1cc(Nc2nc(Sc3ccc(NC(=O)C4CC4)cc3)nc(N3CCOCC3)c2C)n[nH]1
< 100 nM | COc1c(C)nc(Sc2ccc(NC(=O)C3CC3)cc2)nc1Nc1cc(C)[nH]n1
< 100 nM | Cc1cc(Nc2nc(Sc3ccc(NC(=O)C4CC4)cc3)nc3c2C(C)CC3)n[nH]1 (stereo not drawn)
< 100 nM | Cc1cc(Nc2nc(Sc3ccc(NC(=O)C4CC4)cc3)nc(N3CCN(C(C)C)CC3)c2C)n[nH]1
< 100 nM | CC(=O)N1CCN(c2nc(Sc3ccc(NC(=O)C4CC4)cc3)nc(Nc3cc(C)[nH]n3)c2C)CC1
< 100 nM | COCCN1CCN(c2nc(Sc3ccc(NC(=O)C4CC4)cc3)nc(Nc3cc(C)[nH]n3)c2C)CC1
< 100 nM | Cc1cc(Nc2nc(Sc3ccc(NC(=O)C4CC4)cc3)nc(N3CCN(C)C(C)C3)c2C)n[nH]1 (stereo not drawn)
< 100 nM | Cc1cc(Nc2nc(Sc3ccc(NC(=O)C4CC4)cc3)nc(N3CCN(CCN(C)C)CC3)c2C)n[nH]1
< 100 nM | Cc1cc(Nc2nc(Sc3ccc(NC(=O)C4CC4)cc3)nc(N(C)C)c2C)n[nH]1
< 100 nM | CCN(C)c1nc(Sc2ccc(NC(=O)C3CC3)cc2)nc(Nc2cc(C)[nH]n2)c1C
< 100 nM | COCCC(=O)N1CCN(c2nc(Sc3ccc(NC(=O)C4CC4)cc3)nc(Nc3cc(C)[nH]n3)c2OC)CC1
< 100 nM | COc1c(Nc2cc(C)[nH]n2)nc(Sc2ccc(NC(=O)C3CC3)cc2)nc1N1CCN(CC2CC2)CC1
< 100 nM | CNCCN1CCN(c2nc(Sc3ccc(NC(=O)C4CC4)cc3)nc(Nc3cc(C)[nH]n3)c2OC)CC1
< 100 nM | CCC1CCc2nc(Sc3ccc(NC(=O)C4CC4)cc3)nc(Nc3cc(C)[nH]n3)c21 (stereo not drawn)
< 100 nM | Cc1cc(Nc2nc(Sc3ccc(NC(=O)C4CCC4)cc3)nc(N3CCN(C)CC3)c2C)n[nH]1
< 100 nM | CC(=O)Nc1ccc(Sc2nc(Nc3cc(C)[nH]n3)c(C)c(N3CCN(C)CC3)n2)cc1
100 to 1000 nM | CCOc1c(Nc2c[nH]c(C)c2)nc(Sc2ccc(NC(=O)C3CCCC3)cc2)nc1N1CCN(C(=O)CCOC)CC1
< 100 nM | CC(=O)Nc1ccc(Sc2nc(Nc3cc(C)[nH]n3)c(C)c(N3CCN(CCN(C)C)CC3)n2)cc1
< 100 nM | COCCN1CCN(c2nc(Sc3ccc(NC(C)=O)cc3)nc(Nc3cc(C)[nH]n3)c2C)CC1
< 100 nM | CC(=O)Nc1ccc(Sc2nc(Nc3cc(C)[nH]n3)c(C)c(N3CCN(C(C)=O)CC3)n2)cc1
< 100 nM | CC(=O)Nc1ccc(Sc2nc(Nc3cc(C)[nH]n3)c(C)c(N3CCNCC3)n2)cc1
< 100 nM | CC(=O)Nc1ccc(Sc2nc(Nc3cc(C)[nH]n3)c(C)c(N3CCOCC3)n2)cc1
< 100 nM | CC(=O)Nc1ccc(Sc2nc(Nc3cc(C)[nH]n3)c(C)c(N3CCN(C4CCN(C)CC4)CC3)n2)cc1
< 100 nM | Cc1cc(Nc2nc(Sc3ccc(NC(=O)C4CCCC4)cc3)nc(N3CCN(CCN(C)C)CC3)c2C)n[nH]1
< 100 nM | COCCN1CCN(c2nc(Sc3ccc(NC(=O)C4CCCC4)cc3)nc(Nc3cc(C)[nH]n3)c2C)CC1

IC50 | SMILES
< 100 nM | CC(=O)N1CCN(c2nc(Sc3ccc(NC(=O)C4CCCC4)cc3)nc(Nc3cc(C)[nH]n3)c2C)CC1
< 100 nM | Cc1cc(Nc2nc(Sc3ccc(NC(=O)C4CCCC4)cc3)nc(N3CCNCC3)c2C)n[nH]1
< 100 nM | Cc1cc(Nc2nc(Sc3ccc(NC(=O)C4CCCC4)cc3)nc(N3CCOCC3)c2C)n[nH]1
< 100 nM | Cc1cc(Nc2nc(Sc3ccc(NC(=O)C4CCCC4)cc3)nc(N3CCN(C4CCN(C)CC4)CC3)c2C)n[nH]1
< 100 nM | COc1c(Nc2cc(C)[nH]n2)nc(Sc2ccc(NC(C)=O)cc2)nc1N1CCCCC1
< 100 nM | CC(=O)Nc1ccc(Sc2nc(Nc3cc(C)[nH]n3)c(C)c(N(C)C(C)C)n2)cc1
< 100 nM | CC(=O)Nc1ccc(Sc2nc(Nc3cc(C)[nH]n3)c(C)c(N3CCN(C(=O)CCN(C)C)CC3)n2)cc1
< 100 nM | COCC(=O)N1CCN(c2nc(Sc3ccc(NC(C)=O)cc3)nc(Nc3cc(C)[nH]n3)c2C)CC1
< 100 nM | Cc1cc(Nc2nc(Sc3ccc(NC(=O)C4CCCC4)cc3)nc(N(C)C(C)C)c2C)n[nH]1
< 100 nM | COCC(=O)N1CCN(c2nc(Sc3ccc(NC(=O)C4CCCC4)cc3)nc(Nc3cc(C)[nH]n3)c2C)CC1
< 100 nM | Cc1cc(Nc2nc(Sc3ccc(NC(=O)C4CCCC4)cc3)nc(N3CCCCC3)c2C)n[nH]1
< 100 nM | CCN(C)c1nc(Sc2ccc(NC(=O)C3CCCC3)cc2)nc(Nc2cc(C)[nH]n2)c1C
< 100 nM | Cc1cc(Nc2nc(Sc3ccc(NC(=O)C4CCCC4)cc3)nc(N(C)C)c2C)n[nH]1
< 100 nM | CC(=O)Nc1ccc(Sc2nc(Nc3cc(C)[nH]n3)c(C)c(N3CCC(O)CC3)n2)cc1
< 100 nM | CC(=O)Nc1ccc(Sc2nc(Nc3cc(C)[nH]n3)c(C)c(N3CCCC3)n2)cc1
< 100 nM | CC(=O)Nc1ccc(Sc2nc(Nc3cc(C)[nH]n3)c(C)c(N3CCCCCC3)n2)cc1
< 100 nM | CC(=O)Nc1ccc(Sc2nc(Nc3cc(C)[nH]n3)c(C)c(N3CC=CCC3)n2)cc1
< 100 nM | CC(=O)Nc1ccc(Sc2nc(Nc3cc(C)[nH]n3)c(C)c(N3CC=C(F)CC3)n2)cc1
< 100 nM | CC(=O)Nc1ccc(Sc2nc(Nc3cc(C)[nH]n3)c(C)c(N3CCC(C)CC3)n2)cc1
< 100 nM | CC(=O)Nc1ccc(Sc2nc(Nc3cc(C)[nH]n3)c(Cl)c(N3CCN(C)CC3)n2)cc1
< 100 nM | CSc1nc(Nc2cc(C)[nH]n2)c(Cl)c(N2CCCCC2)n1
< 100 nM | Cc1cc(Nc2nc(Sc3ccccc3)nc(N3CCCCC3)c2C)n[nH]1
< 100 nM | Cc1ccc(Sc2nc(Nc3cc(C)[nH]n3)c(C)c(N3CCCCC3)n2)cc1
< 100 nM | Cc1cc(Nc2nc(Sc3ccc(N)cc3)nc(N3CCCCC3)c2C)n[nH]1
< 100 nM | CNC(=O)Nc1ccc(Sc2nc(Nc3cc(C)[nH]n3)c(C)c(N3CCCCC3)n2)cc1
< 100 nM | COC(=O)Nc1ccc(Sc2nc(Nc3cc(C)[nH]n3)c(C)c(N3CCCCC3)n2)cc1

IC50 | SMILES
< 100 nM | CC(=O)Nc1ccc(Sc2nc(Nc3cc(C)[nH]n3)c(C)c(N3CCC(F)(F)CC3)n2)cc1
< 100 nM | CC(=O)Nc1ccc(Sc2nc(Nc3cc(C)[nH]n3)c(C)c(N3CCC(F)CC3)n2)cc1
< 100 nM | COc1c(Nc2cc(C)[nH]n2)nc(Sc2ccc(S(=O)(=O)Cc3ccccc3)cc2)nc1N1CCC(CCN2CCN(C)CC2)CC1
< 100 nM | COc1c(Nc2cc(C)[nH]n2)nc(Sc2ccc(S(=O)(=O)Cc3ccccc3)cc2)nc1N1CCN(CCN2CCCCCC2)CC1
< 100 nM | COc1c(Nc2cc(C)[nH]n2)nc(Sc2ccc(NC(C)=O)cc2)nc1N1CCN(C2CCN(C)CC2)CC1
< 100 nM | COc1c(Nc2cc(C)[nH]n2)nc(Sc2ccc(NC(C)=O)cc2)nc1N1CCN(C)CC1
< 100 nM | CC(=O)Nc1ccc(Sc2nc(Nc3cc(C)[nH]n3)c(Cl)c(N3CCCCC3)n2)cc1
< 100 nM | CNc1ccc(Sc2nc(Nc3cc(C)[nH]n3)c(C)c(N3CCCCC3)n2)cc1
< 100 nM | Cc1cc(Nc2nc(Sc3ccc(N(C)C)cc3)nc(N3CCCCC3)c2C)n[nH]1
< 100 nM | CC(=O)Nc1ccc(Sc2nc(Nc3cc(C)[nH]n3)cc(N3CCCCC3)n2)cc1
< 100 nM | COc1c(Nc2cc(C)[nH]n2)nc(Sc2ccc(NC(C)=O)cc2)nc1N1CCNCC1
< 100 nM | CCN(CC)c1nc(Sc2ccc(NC(C)=O)cc2)nc(Nc2cc(C)[nH]n2)c1OC
< 100 nM | CCN(C)c1nc(Sc2ccc(NC(C)=O)cc2)nc(Nc2cc(C)[nH]n2)c1OC
< 100 nM | COc1c(Nc2cc(C)[nH]n2)nc(Sc2ccc(NC(C)=O)cc2)nc1N(C)C
< 100 nM | COc1c(Nc2cc(C)[nH]n2)nc(Sc2ccc(NC(C)=O)cc2)nc1N1CCOCC1
< 100 nM | COc1c(Nc2cc(C)[nH]n2)nc(Sc2ccc(NC(C)=O)cc2)nc1N1CCN(C(C)=O)CC1
< 100 nM | COCCN1CCN(c2nc(Sc3ccc(NC(C)=O)cc3)nc(Nc3cc(C)[nH]n3)c2OC)CC1
< 100 nM | COc1c(Nc2cc(C)[nH]n2)nc(Sc2ccc(NC(C)=O)cc2)nc1N1CCCC1
< 100 nM | COc1c(Nc2cc(C)[nH]n2)nc(Sc2ccc(NC(C)=O)cc2)nc1N(C)C(C)C
< 100 nM | CC(=O)Nc1ccc(Sc2nc(Nc3cc(C)[nH]n3)c(C)c(N3CCCCC3C)n2)cc1 (stereo not drawn)
< 100 nM | CCN1CCN(c2nc(Sc3ccc(NC(C)=O)cc3)nc(Nc3cc(C)[nH]n3)c2C)CC1
< 100 nM | COCC(=O)N1CCN(c2nc(Sc3ccc(NC(C)=O)cc3)nc(Nc3cc(C)[nH]n3)c2OC)CC1
< 100 nM | COc1c(Nc2cc(C)[nH]n2)nc(Sc2ccc(NC(C)=O)cc2)nc1N1CCC(F)(F)CC1
< 100 nM | COc1c(Nc2cc(C)[nH]n2)nc(Sc2ccc(NC(C)=O)cc2)nc1N1CCC(F)CC1
< 100 nM | COc1c(Nc2cc(C)[nH]n2)nc(Sc2ccc(NC(C)=O)cc2)nc1N1CCC(O)CC1
< 100 nM | COc1c(Nc2cc(C)[nH]n2)nc(Sc2ccc(NC(C)=O)cc2)nc1N1CC=CCC1
